Data: US7655233B2 (priority 2005, dated 2010)

System: Vesicular Stomatitis Virus

In the case of Polysorbate 80, the “virus inactivation by excipient” value was “no appreciable virus inactivation occurred”.
